Source: the supplement of paper PMC10307832

Tests used:
Test in all cases: relative viability (nuclei count vs DMSO), 5 days (fraction); higher = more cells survive
Bleomycin + Luminespib = compound: CC1=C(N=C(N=C1N)[C@H](CC(=O)N)NC[C@@H](C(=O)N)N)C(=O)N[C@@H]([C@H](C2=CN=CN2)OC3C(C(C(C(O3)CO)O)O)OC4C(C(C(C(O4)CO)O)OC(=O)N)O)C(=O)N[C@H](C)[C@H]([C@H](C)C(=O)N[C@@H]([C@@H](C)O)C(=O)NCCC5=NC(=CS5)C6=NC(=CS6)C(=O)NCCC[S+](C)C)O [Bleomycin] + CCNC(=O)c1noc(-c2cc(C(C)C)c(O)cc2O)c1-c1ccc(CN2CCOCC2)cc1 [Luminespib] (partner 0.01 µM); conditions: main component drawn
In short: (§1)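 Lung cancer cell lines, seeded in 1536-well plates, were treated the following day by pin tool with a single drug or with five library-drug doses (not always all listed) in √10 steps on top of a fixed anchor-drug dose. Cells were fixed and nuclei stained in one step after 5 days, and nuclei were counted. Relative viability is the nuclei count for treated wells divided by that for vehicle wells, reported as medians of duplicate plates.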

Bleomycin + Pictilisib = compound: CC1=C(N=C(N=C1N)[C@H](CC(=O)N)NC[C@@H](C(=O)N)N)C(=O)N[C@@H]([C@H](C2=CN=CN2)OC3C(C(C(C(O3)CO)O)O)OC4C(C(C(C(O4)CO)O)OC(=O)N)O)C(=O)N[C@H](C)[C@H]([C@H](C)C(=O)N[C@@H]([C@@H](C)O)C(=O)NCCC5=NC(=CS5)C6=NC(=CS6)C(=O)NCCC[S+](C)C)O [Bleomycin] + CS(=O)(=O)N1CCN(Cc2cc3nc(-c4cccc5[nH]ncc45)nc(N4CCOCC4)c3s2)CC1 [Pictilisib] (partner 1 µM); conditions: main component drawn
In short: as §1

Etoposide + OSI-027 = compound: COc1cc([C@@H]2c3cc4c(cc3[C@@H](O[C@@H]3O[C@@H]5CO[C@@H](C)O[C@H]5[C@H](O)[C@H]3O)[C@H]3COC(=O)[C@H]23)OCO4)cc(OC)c1O [Etoposide] + COc1cccc2cc(-c3nc([C@H]4CC[C@H](C(=O)O)CC4)n4ncnc(N)c34)[nH]c12 [OSI-027] (partner 0.5 µM)
In short: as §1

Etoposide + AZD7762 = compound: COc1cc([C@@H]2c3cc4c(cc3[C@@H](O[C@@H]3O[C@@H]5CO[C@@H](C)O[C@H]5[C@H](O)[C@H]3O)[C@H]3COC(=O)[C@H]23)OCO4)cc(OC)c1O [Etoposide] + NC(=O)Nc1cc(-c2cccc(F)c2)sc1C(=O)N[C@H]1CCCNC1 [AZD7762] (partner 0.2 µM)
In short: as §1

Cell Line	relative viability (Bleomycin + Luminespib; first compound 0.01 µM)	relative viability (Bleomycin + Luminespib; first compound 0.03162 µM)	relative viability (Bleomycin + Luminespib; first compound 0.1 µM)	relative viability (Bleomycin + Luminespib; first compound 0.3162 µM)	relative viability (Bleomycin + Luminespib; first compound 1 µM)	relative viability (Bleomycin + Pictilisib; first compound 0.01 µM)	relative viability (Bleomycin + Pictilisib; first compound 0.03162 µM)	relative viability (Bleomycin + Pictilisib; first compound 0.1 µM)	relative viability (Bleomycin + Pictilisib; first compound 0.3162 µM)	relative viability (Bleomycin + Pictilisib; first compound 1 µM)	relative viability (Etoposide + OSI-027; first compound 0.01 µM)	relative viability (Etoposide + OSI-027; first compound 0.03162 µM)	relative viability (Etoposide + OSI-027; first compound 0.1 µM)	relative viability (Etoposide + OSI-027; first compound 0.3162 µM)	relative viability (Etoposide + OSI-027; first compound 1 µM)	relative viability (Etoposide + AZD7762; first compound 0.01 µM)	relative viability (Etoposide + AZD7762; first compound 0.03162 µM)	relative viability (Etoposide + AZD7762; first compound 0.1 µM)	relative viability (Etoposide + AZD7762; first compound 0.3162 µM)	relative viability (Etoposide + AZD7762; first compound 1 µM)
201T	1.06	0.984	0.936	0.667	0.656	0.686	0.59	0.622	0.634	0.512	0.6	0.693	0.641	0.566	0.283	0.612	0.751	0.47	0.492	0.37
A549						0.4	0.389	0.323	0.0899	0.0479										
A-427	0.747	0.775	0.753	0.256	0.158	0.58	0.488	0.492	0.155	0.174	0.472	0.486	0.43	0.396	0.212	0.713	0.741	0.569	0.473	0.286
ABC-1	0.578	0.737	0.561	0.198	0.225	0.68	0.689	0.719	0.333	0.286	0.529	0.564	0.339	0.361	0.179	0.978	0.851	0.468	0.425	0.369
BEN	0.327	0.329	0.342	0.332	0.2	0.573	0.57	0.54	0.389	0.435	0.266	0.306		0.297	0.318	0.828	0.818		0.665	0.606
CAL-12T	0.493	0.555	0.233	0.173	0.143		0.588	0.394	0.207	0.236	0.527	0.603	0.339	0.555	0.199	0.567	0.792	0.613	0.477	0.409
COR-L23	0.501	0.352	0.258	0.122	0.122	0.705	0.7	0.433	0.129	0.0958	0.76	0.741	0.436	0.532	0.25					
COR-L 105	0.665	0.743	0.562	0.555	0.386	0.412	0.43	0.406	0.278	0.276	0.756	0.851	0.432	0.669	0.556					
Calu-6						0.575	0.537	0.385	0.179	0.177										
ChaGo-K-1	0.505	0.476	0.502	0.293	0.205		0.728	0.655	0.406	0.217	0.487	0.689	0.466	0.285	0.174	0.859	0.863	0.863	0.69	0.302
EBC-1						0.359	0.376	0.346	0.272	0.283										
EKVX	0.79	0.824	0.804	0.357	0.264	0.422	0.39	0.376	0.212	0.189	0.694	0.651	0.429	0.617	0.364	0.759	0.818	0.268	0.344	0.272
EMC-BAC-2	0.997	0.832	0.8	0.348	0.244	0.498	0.489	0.427	0.282	0.222	0.353	0.383	0.294	0.23	0.15	1.06	1.11	0.688	0.639	0.334
EPLC-272H	0.361	0.23	0.203	0.145	0.133	0.288	0.352	0.265	0.137	0.161	0.287	0.293	0.209	0.326	0.243	0.272	0.269	0.183	0.182	0.0802
H3255	0.817	0.878	0.652	0.52	0.351	0.442	0.414	0.431	0.287	0.276	0.617	0.709	0.417	0.542	0.477	0.949	0.95	0.726	0.66	0.668
HARA	0.682	0.751	0.705	0.442	0.543	0.333	0.557	0.428	0.27	0.184	0.517	0.554	0.151	0.422	0.118	0.436	0.347	0.236	0.301	0.291
HCC-78						0.201	0.213	0.204	0.199	0.159	0.387	0.392	0.345	0.376	0.281	0.808	0.771	0.392	0.658	0.409
HCC-366						0.133	0.128	0.09	0.0658	0.0477	0.911	1.16	0.466	0.374	0.0799	0.227	0.251	0.187	0.091	0.0373

Cell Line	relative viability (Bleomycin + Luminespib; first compound 0.01 µM)	relative viability (Bleomycin + Luminespib; first compound 0.03162 µM)	relative viability (Bleomycin + Luminespib; first compound 0.1 µM)	relative viability (Bleomycin + Luminespib; first compound 0.3162 µM)	relative viability (Bleomycin + Luminespib; first compound 1 µM)	relative viability (Bleomycin + Pictilisib; first compound 0.01 µM)	relative viability (Bleomycin + Pictilisib; first compound 0.03162 µM)	relative viability (Bleomycin + Pictilisib; first compound 0.1 µM)	relative viability (Bleomycin + Pictilisib; first compound 0.3162 µM)	relative viability (Bleomycin + Pictilisib; first compound 1 µM)	relative viability (Etoposide + OSI-027; first compound 0.01 µM)	relative viability (Etoposide + OSI-027; first compound 0.03162 µM)	relative viability (Etoposide + OSI-027; first compound 0.1 µM)	relative viability (Etoposide + OSI-027; first compound 0.3162 µM)	relative viability (Etoposide + OSI-027; first compound 1 µM)	relative viability (Etoposide + AZD7762; first compound 0.01 µM)	relative viability (Etoposide + AZD7762; first compound 0.03162 µM)	relative viability (Etoposide + AZD7762; first compound 0.1 µM)	relative viability (Etoposide + AZD7762; first compound 0.3162 µM)	relative viability (Etoposide + AZD7762; first compound 1 µM)
IA-LM						0.331	0.29	0.356	0.211	0.215										
NCI-H520	0.227	0.196	0.218	0.24	0.213	0.298	0.301	0.287	0.256	0.238	0.253	0.209	0.204	0.292	0.286					
NCI-H522	0.775	0.66	0.508	0.319	0.414						0.647	0.77	0.657	0.709	0.71	0.891	0.97	0.69	0.761	0.824
NCI-H661	0.78	0.807	0.564	0.299	0.284	0.523	0.387	0.263	0.25	0.245	0.702	0.712	0.619	0.494	0.267					
NCI-H1299						0.65	0.571	0.367	0.149	0.154										
NCI-H1563	0.512	0.535	0.479	0.487	0.465	0.608	0.698	0.623	0.574	0.533	0.738	0.781	0.756	0.61	0.466					
NCI-H1623	0.396	0.474	0.525	0.343	0.31						0.438	0.497	0.386	0.413	0.322					
NCI-H1648												0.269	0.253	0.289	0.292		0.762	0.991	0.722	0.451
NCI-H1650	0.172	0.213	0.213	0.18	0.188	0.408	0.318	0.255	0.139	0.125	0.711	0.556	0.41	0.32	0.163					
NCI-H1703						0.226	0.236	0.26	0.219	0.176						0.149	0.126		0.121	0.114
NCI-H2009	0.962	1.04	0.961	0.704	0.618	0.768	0.672	0.749	0.324	0.405	0.572	0.659	0.454	0.539	0.369					
NCI-H2023	0.526	0.531	0.454	0.128	0.0778	0.225	0.193	0.158	0.124	0.0805	0.4	0.451	0.223	0.286	0.119					
NCI-H2228	0.149	0.129	0.186	0.128	0.15	0.553	0.356	0.386	0.361	0.328	0.499	0.787	0.276	0.481	0.164					
NCI-H2342	0.646	0.665	0.693	0.523	0.525						0.707	0.649	0.51	0.402	0.352	0.573	0.441	0.337	0.433	0.4
SK-LU-1	0.197	0.202	0.272	0.216	0.191	0.434	0.638	0.474	0.352	0.282	0.358	0.373	0.251	0.174	0.172					
SK-MES-1	0.701	0.641	0.641	0.244	0.202	0.432	0.274	0.307	0.201	0.116	0.523	0.616	0.544	0.437	0.189					
SW 900	0.187	0.166	0.199	0.185	0.183						0.448	0.563	0.367	0.333	0.129	0.561	0.7	0.379	0.539	0.293
SW 1573	0.508	0.616	0.118	0.174	0.116	0.43	0.361	0.459	0.254	0.174	0.707	0.593	0.277	0.265	0.116					
